Experimental data reported in patent US10993983B2, “Cyclic peptide epitopes and small-molecule mimics for inducing autophagy” (TRUSTEES OF TUFTS COLLEGE, priority 2016, dated 2021).
Several values for one entry are separate records, joined by “and”; a condition that tells them apart may be missing. Identical values can stand only once. Marks after values point to notes of the source that are not given here.

Assays:
Format in all cases: cell-based
p62 = p62 degradation assay (p62/actin immunoblot); set-up: key: −: activity not reported; 0: decreased vs. WT; +: similar to WT; ++: modest increase vs. WT; +++: significant increase vs. WT; details: for Activity (μM) 10, p62/actin assay activity: 10 μM; for Activity (μM) 30, p62/actin assay activity: 30 μM; for Activity (μM) 50, p62/actin assay activity: 50 μM; for Activity (μM) 100, p62/actin assay activity: 100 μM; for Activity (μM) 30, starred cell, p62/actin assay activity / Activity (μM) 10, starred cell, p62/actin assay activity: Table 8; for Activity (μM) 30, starred cell, p62/actin assay activity: *Data taken at 20 instead of 30 μM; for Activity (μM) 20, p62/actin assay activity: 20 μM; for Activity (μM) 10, starred cell, p62/actin assay activity: 10 μM marked * (footnote: data taken at 20 instead of 30 μM)
LC3 = LC3 marker assay (LC3-I to LC3-II conversion immunoblot); set-up: key: −: activity not reported; 0: decreased vs. WT; +: similar to WT; ++: modest increase vs. WT; +++: significant increase vs. WT; details: for Activity (μM) 10, LC3 assay activity: 10 μM; for Activity (μM) 30, LC3 assay activity: 30 μM; for Activity (μM) 50, LC3 assay activity: 50 μM; for Activity (μM) 100, LC3 assay activity: 100 μM; for Activity (μM) 30, starred cell, LC3 assay activity / Activity (μM) 10, starred cell, LC3 assay activity: Table 8; for Activity (μM) 30, starred cell, LC3 assay activity: *Data taken at 20 instead of 30 μM; for Activity (μM) 20, LC3 assay activity: 20 μM; for Activity (μM) 10, starred cell, LC3 assay activity: 10 μM marked * (footnote: data taken at 20 instead of 30 μM)
HeLa cells = test: Autophagy induction judged by p62 and LC3 immunoblots together; set-up: key to Activity compared to wild-type WT / Activity (μM) 10, single symbol / Activity (μM) 30, single symbol / Activity (μM) 50, single symbol / Activity (μM) 100, single symbol: −: activity not reported; 0: decreased vs. WT; +: similar to WT; ++: modest increase vs. WT; +++: significant increase vs. WT; details: for Activity (μM) 10, single symbol: 10 μM; for Activity (μM) 30, single symbol: 30 μM; for Activity (μM) 50, single symbol: 50 μM; for Activity (μM) 100, single symbol: 100 μM
Experimental: This 10-mer sequence was substituted with various thiol-containing amino acids at various positions, and then cross-linked with various linkers as described above (FIG. 5, a and FIG. 6).
Cells were treated with peptide in OPTI-MEM (Thermo Scientific) acidified with 0.15% (v/v) 6N HCl for 3 hour. Cells were rinsed with Dulbecco's phosphate buffered saline (PBS) and lysed in lysis buffer (20 mM HEPES, 150 mM NaCl, 1 mM EDTA, 1% Triton X-100, protease inhibitor cocktail (Roche) on ice for 1 hour. Cell lysates were centrifuged at 16,000 g for 10 min at 4° C. and analyzed by SDS-PAGE and transferred to PVDF membranes. The membranes were blocked 5% non-fat dry milk (NFDM) in PBST (PBS+0.05% Tween-20) for 1 hour, then incubated overnight at 4° C. with primary antibody in 5% NFDM in PBST. The blots were washed with PBST and incubated with HRP-conjugated secondary antibodies diluted in 5% NFDM in PBST for 1 hour at room temperature. Membranes were washed with PBST and visualized with SuperSignal West Pico Chemiluminescent Substrate (Thermo Scientific). Semi-quantitative results were obtained by noting the lowest concentration at which both p62 degradation and LC3-I to LC3-II conversion were observed.
(SEQ ID NO: 16)-Sequence. […] The N-terminus was capped with an acetyl group while the C terminus was capped with a —C(O)—NH2 group. The activity reported is a summation of results from both the p62 degradation assay and the LC3 marker assay.

[1] = Table 5, control compound T25, first symbol
[2] = Table 6, control DMSO, first symbol
[3] = Table 5, control compound T25, second symbol
[4] = Table 6, control DMSO, second symbol
[5] = Table 8, control compound T25, first symbol
[6] = Table 8, control compound T25, second symbol
[7] = Table 3, control vehicle, first symbol of cell
[8] = Table 4, control inactive Tat-Beclin mutant, first symbol
[9] = Table 3, control vehicle, first symbol
[10] = Table 3, control vehicle, second symbol of cell
[11] = Table 4, control inactive Tat-Beclin mutant, second symbol
[12] = Table 3, control vehicle, second symbol
[13] = Table 4, starred rows (asterisk not explained)

VCNATCHIWH [Compound 16]
+++: Activity (μM) 30, p62/actin assay activity (p62; [2]) | Activity (μM) 50, p62/actin assay activity (p62; [2]) | Activity (μM) 100, p62/actin assay activity (p62; [2])
++: Activity (μM) 10, p62/actin assay activity (p62; [2]) | Activity (μM) 10, LC3 assay activity (LC3; [3]) | Activity (μM) 30, LC3 assay activity (LC3; [3]) | Activity (μM) 50, LC3 assay activity (LC3; [3]) | Activity (μM) 100, LC3 assay activity (LC3; [3]) | Activity (μM) 50, single symbol (HeLa cells; Table 5) | Activity (μM) 100, single symbol (HeLa cells; Table 5)
+: Activity (μM) 10, LC3 assay activity (LC3; [4]) | Activity (μM) 30, LC3 assay activity (LC3; [4]) | Activity (μM) 50, LC3 assay activity (LC3; [4]) | Activity (μM) 100, LC3 assay activity (LC3; [4]) | Activity (μM) 30, single symbol (HeLa cells; Table 5)
0: Activity (μM) 10, p62/actin assay activity (p62; [1]) | Activity (μM) 30, p62/actin assay activity (p62; [1]) | Activity (μM) 50, p62/actin assay activity (p62; [1]) | Activity (μM) 100, p62/actin assay activity (p62; [1]) | Activity (μM) 10, single symbol (HeLa cells; Table 5)

VFNATFEIWH [Compound T25]
+++: Activity (μM) 5, LC3 assay activity (LC3; 5 μM, Table 8, control compound T25, second symbol) | Activity (μM) 10, LC3 assay activity (LC3; [6]) | Activity (μM) 30, single symbol (HeLa cells; Table 7, one symbol only)
+++/+++*: Activity (μM) 30, starred cell, p62/actin assay activity (p62; first symbol) | Activity (μM) 30, starred cell, LC3 assay activity (LC3; second symbol)
++: Activity (μM) 5, p62/actin assay activity (p62; 5 μM, Table 8, control compound T25, first symbol) | Activity (μM) 10, p62/actin assay activity (p62; [5]) | Activity compared to wild-type WT (HeLa cells; Tat-linked linear peptides, summation of p62 degradation assay and LC3 marker assay)

VCNATCHIWH [Compound 1]
+++: Activity (μM) 100, p62/actin assay activity (p62; [9]) | Activity (μM) 100, p62/actin assay activity (p62; [5])
0/0 and ++: Activity (μM) 30, p62/actin assay activity (p62; [5])
0/0 and +++: Activity (μM) 30, LC3 assay activity (LC3; [6])
0: Activity (μM) 30, p62/actin assay activity (p62; [8]) | Activity (μM) 50, p62/actin assay activity (p62; [8]) | Activity (μM) 100, p62/actin assay activity (p62; [8]) | Activity (μM) 10, single symbol (HeLa cells; [13]) | Activity (μM) 30, single symbol (HeLa cells; [13]) | Activity (μM) 50, single symbol (HeLa cells; [13]) | Activity (μM) 100, single symbol (HeLa cells; [13])
0/0 and +++/+++: Activity (μM) 50, p62/actin assay activity (p62; [5]) | Activity (μM) 50, LC3 assay activity (LC3; [6])
++: Activity (μM) 50, LC3 assay activity (LC3; [11])
+: Activity (μM) 30, LC3 assay activity (LC3; [11]) | Activity (μM) 100, LC3 assay activity (LC3; [12]) | Activity (μM) 100, LC3 assay activity (LC3; [6])
0/0* and 0: Activity (μM) 10, starred cell, p62/actin assay activity (p62; first symbol)
0/0: Activity (μM) 10, p62/actin assay activity (p62; [7]) | Activity (μM) 10, p62/actin assay activity (p62; [8]) | Activity (μM) 20, p62/actin assay activity (p62; [9]) | Activity (μM) 50, p62/actin assay activity (p62; [9]) | Activity (μM) 10, LC3 assay activity (LC3; [10]) | Activity (μM) 10, LC3 assay activity (LC3; [11]) | Activity (μM) 20, LC3 assay activity (LC3; [12]) | Activity (μM) 50, LC3 assay activity (LC3; [12])
0/0* and +: Activity (μM) 10, starred cell, LC3 assay activity (LC3; second symbol)

YGRKKRRQRRR (Human immunodeficiency virus) [Tat, HIV-1 Tat protein transduction domain, reference compound]
0/0: Activity (μM) 10, p62/actin assay activity (p62; [8]) | Activity (μM) 30, p62/actin assay activity (p62; [8]) | Activity (μM) 100, p62/actin assay activity (p62; [8]) | Activity (μM) 10, LC3 assay activity (LC3; [11]) | Activity (μM) 30, LC3 assay activity (LC3; [11]) | Activity (μM) 100, LC3 assay activity (LC3; [11])
0: Activity (μM) 50, p62/actin assay activity (p62; [8]) | Activity (μM) 10, single symbol (HeLa cells; [13]) | Activity (μM) 30, single symbol (HeLa cells; [13]) | Activity (μM) 50, single symbol (HeLa cells; [13]) | Activity (μM) 100, single symbol (HeLa cells; [13])
+: Activity (μM) 50, LC3 assay activity (LC3; [11])

VCNATCHIWH [Compound 17]
+++/+++*: Activity (μM) 30, starred cell, p62/actin assay activity (p62; first symbol) | Activity (μM) 30, starred cell, LC3 assay activity (LC3; second symbol)
0: Activity (μM) 10, LC3 assay activity (LC3; [3]) | Activity (μM) 30, LC3 assay activity (LC3; [3]) | Activity (μM) 100, LC3 assay activity (LC3; [3]) | Activity (μM) 10, single symbol (HeLa cells; Table 5)
+: Activity (μM) 10, p62/actin assay activity (p62; [2]) | Activity (μM) 50, LC3 assay activity (LC3; [3]) | Activity (μM) 100, LC3 assay activity (LC3; [4])
+++: Activity (μM) 10, p62/actin assay activity (p62; [1]) | Activity (μM) 30, p62/actin assay activity (p62; [2]) | Activity (μM) 50, p62/actin assay activity (p62; [2]) | Activity (μM) 100, p62/actin assay activity (p62; [2]) | Activity (μM) 10, LC3 assay activity (LC3; [6]) | Activity (μM) 50, single symbol (HeLa cells; Table 5) | Activity (μM) 100, single symbol (HeLa cells; Table 5)
++: Activity (μM) 10, p62/actin assay activity (p62; [5]) | Activity (μM) 30, p62/actin assay activity (p62; [1]) | Activity (μM) 50, p62/actin assay activity (p62; [1]) | Activity (μM) 100, p62/actin assay activity (p62; [1]) | Activity (μM) 10, LC3 assay activity (LC3; [4]) | Activity (μM) 30, LC3 assay activity (LC3; [4]) | Activity (μM) 50, LC3 assay activity (LC3; [4]) | Activity (μM) 30, single symbol (HeLa cells; Table 5)

VCNACFHIWH [Compound 3]
0/0*: Activity (μM) 10, starred cell, p62/actin assay activity (p62; first symbol) | Activity (μM) 10, starred cell, LC3 assay activity (LC3; second symbol)
+ and +++/+++: Activity (μM) 50, p62/actin assay activity (p62; [5])
+++: Activity (μM) 20, LC3 assay activity (LC3; [12]) | Activity (μM) 30, LC3 assay activity (LC3; [11]) | Activity (μM) 50, LC3 assay activity (LC3; [12])
0/0: Activity (μM) 10, p62/actin assay activity (p62; [7]) | Activity (μM) 30, p62/actin assay activity (p62; [5]) | Activity (μM) 100, p62/actin assay activity (p62; [8]) | Activity (μM) 10, LC3 assay activity (LC3; [10]) | Activity (μM) 30, LC3 assay activity (LC3; [6]) | Activity (μM) 100, LC3 assay activity (LC3; [11])
++: Activity (μM) 50, p62/actin assay activity (p62; [9]) | Activity (μM) 10, LC3 assay activity (LC3; [11])
+++/+++: Activity (μM) 100, p62/actin assay activity (p62; [9]) | Activity (μM) 100, p62/actin assay activity (p62; [5]) | Activity (μM) 100, LC3 assay activity (LC3; [12]) | Activity (μM) 100, LC3 assay activity (LC3; [6])
0: Activity (μM) 10, p62/actin assay activity (p62; [8]) | Activity (μM) 30, p62/actin assay activity (p62; [8]) | Activity (μM) 50, p62/actin assay activity (p62; [8]) | Activity (μM) 10, single symbol (HeLa cells; [13]) | Activity (μM) 30, single symbol (HeLa cells; [13]) | Activity (μM) 50, single symbol (HeLa cells; [13]) | Activity (μM) 100, single symbol (HeLa cells; [13])
0 and +++/+++: Activity (μM) 50, LC3 assay activity (LC3; [6])
+: Activity (μM) 20, p62/actin assay activity (p62; [9]) | Activity (μM) 50, LC3 assay activity (LC3; [11])
